From patent US20260256792A1, “TREATMENT OF CHRONIC SPONTANEOUS URTICARIA BY ADMINISTERING (R)-2-[3-[4-AMINO-3-(2-FLUORO-4-PHENOXY-PHENYL)PYRAZOLO[3,4-D]PYRIMIDIN-1-YL]PIPERIDINE-1-CARBONYL]-4-METHYL-4-[4-(OXETAN-3-YL)PIPERAZIN-1-YL]PENT-2-ENENITRILE” (priority 2023, published 2026)

System: angioedema in CSU patients
Assay: Phase 2 CSU study: angioedema activity score over 7 days (AAS7)
Type: in vivo, human
Design: AAS7, Median / AAS7 Change from baseline, Median: scale not given here
From the text: The study comprises a 12 week, randomized, double-blind, placebo-controlled, multi-center, dose-ranging efficacy and safety phase, followed by a 40 week open label extension (OLE) phase (see FIG. 1). The study consists of three phases and an optional OLE phase. […] The weekly angioedema activity score (AAS7) was proposed as a tertiary endpoint. […] Patients were to complete the AAS using the e-diary. The e-diary was to be used once daily on the same time of each day recording of participant's answers to the angioedema activity score over 7 days (AAS7) questionnaire.

[1] = 400 mg TID, Week 12, omalizumab-naïve, angioedema at baseline
[2] = 400 mg TID, omalizumab-naïve population, angioedema at baseline
[3] = End of Study, 400 mg TID, Incomplete Responders with angioedema at baseline, both values imputed
[4] = Omalizumab-Naïve Population, 400 mg BID, End of Study
[5] = Omalizumab-Naïve Population, 400 mg BID, Week 1
[6] = Omalizumab-Naïve Population, 400 mg BID, Week 2
[7] = Omalizumab-Naïve Population, 400 mg BID, Week 3
[8] = Omalizumab-Naïve Population, 400 mg BID, Week 4
[9] = Omalizumab-Naïve Population, 400 mg BID, Week 5
[10] = Omalizumab-Naïve Population, 400 mg BID, Week 6
[11] = Omalizumab-Naïve Population, 400 mg BID, Week 7
[12] = Omalizumab-Naïve Population, 400 mg BID, Week 8
[13] = Omalizumab-Naïve Population, 400 mg BID, Week 9

`CC(C)(C=C(C#N)C(=O)N1CCC[C@@H](n2nc(-c3ccc(Oc4ccccc4)cc3F)c3c(N)ncnc32)C1)N1CCN(C2COC2)CC1` [rilzabrutinib, (R)-2-[3-[4-amino-3-(2-fluoro-4-phenoxy-phenyl)pyrazolo[3,4-d]pyrimidin-1-yl]piperidine-1-carbonyl]-4-methyl-4-[4-(oxetan-3-yl)piperazin-1-yl]pent-2-enenitrile] was tested, and the “AAS7 Post-baseline Mean (SD)” value [1] was 7.10 (12.86), the “Participants with AAS7 = 0, Responder n (%)” value [1] was 14 (60.9) n (%) and the “LS mean change from baseline in AAS7 at Week 12” value [2] was −44.04. For the same compound, the “decrease from baseline in AAS7 at Week 12” value [2] was 84.63%, the “patients achieving angioedema score (AAS7) of 0” value (400 mg TID, within one week of initiating treatment, omalizumab-naïve) was 30.4% and the “AAS7, Mean (SD)” value [3] was 30.42 (14.73). The “AAS7, Median” value [3] was 30.42, the “AAS7 Change from baseline, Mean (SD)” value [3] was 1.50 (2.12) and the “AAS7 Change from baseline, Median” value [3] was 1.50. The “AAS7 Percent change from baseline, Median” value (from here on “AAS7 Percent change … Median”) [3] was 8.82, the “AAS7, Mean (SD)” value [4] was 27.33 (24.01) and the “AAS7, Median” value [4] was 37.00. The “AAS7 Change from baseline, Mean (SD)” value [4] was −38.33 (25.03), the “AAS7 Change from baseline, Median” value [4] was −37.00 and the “AAS7 Percent change from baseline, Mean (SD)” value (shortened to “AAS7 Percent change … (SD)”) [4] was −57.91 (38.75) %. The “AAS7 Percent change … Median” value [4] was −50.00%, the “AAS7 Change from baseline, Mean (SD)” value [5] was −21.44 (18.46) and the “AAS7 Change from baseline, Median” value [5] was −22.00. The “AAS7 Percent change … (SD)” value [5] was 62.04 (42.40) %, the “AAS7 Percent change … Median” value [5] was −82.71% and the “AAS7, Median” value [6] was 14.00. For the same compound, the “AAS7 Change from baseline, Mean (SD)” value [6] was −22.60 (18.31), the “AAS7 Change from baseline, Median” value [6] was −23.00 and the “AAS7 Percent change … (SD)” value [6] was −45.07 (90.72) %. The “AAS7 Percent change … Median” value [6] was −77.03%, the “AAS7, Median” value [7] was 6.50 and the “AAS7 Change from baseline, Mean (SD)” value [7] was −30.63 (24.46). For the same compound, the “AAS7 Change from baseline, Median” value [7] was −25.88, the “AAS7 Percent change … (SD)” value [7] was −45.93 (125.55) % and the “AAS7 Percent change … Median” value [7] was −89.45%. For the same compound, the “AAS7 Change from baseline, Mean (SD)” value [8] was −30.05 (20.80), the “AAS7 Change from baseline, Median” value [8] was −28.00 and the “AAS7 Percent change … (SD)” value [8] was −53.69 (109.03) %. The “AAS7 Percent change … Median” value [8] was −82.09%, the “AAS7, Median” value [9] was 0.00 and the “AAS7 Change from baseline, Mean (SD)” value [9] was −30.86 (24.37). For the same compound, the “AAS7 Change from baseline, Median” value [9] was −24.00, the “AAS7 Percent change … (SD)” value [9] was −66.40 (54.16) % and the “AAS7 Percent change … Median” value [9] was −100.00%. The “AAS7, Median” value [10] was 3.00, the “AAS7 Change from baseline, Mean (SD)” value [10] was −31.58 (23.39) and the “AAS7 Change from baseline, Median” value [10] was −24.00. The “AAS7 Percent change … (SD)” value [10] was −70.72 (39.56) %, the “AAS7 Percent change … Median” value [10] was −92.19% and the “AAS7, Median” value [11] was 4.67. The “AAS7 Change from baseline, Mean (SD)” value [11] was −33.54 (24.64), the “AAS7 Change from baseline, Median” value [11] was −30.00 and the “AAS7 Percent change … (SD)” value [11] was −68.05 (40.33) %. For the same compound, the “AAS7 Percent change … Median” value [11] was −88.60%, the “AAS7, Median” value [12] was 0.00 and the “AAS7 Change from baseline, Mean (SD)” value [12] was −36.21 (24.67). For the same compound, the “AAS7 Change from baseline, Median” value [12] was −32.00, the “AAS7 Percent change … (SD)” value [12] was −74.90 (43.31) % and the “AAS7 Percent change … Median” value [12] was −100.00%. For the same compound, the “AAS7, Median” value [13] was 0.00, the “AAS7 Change from baseline, Mean (SD)” value [13] was −34.83 (26.07) and the “AAS7 Change from baseline, Median” value [13] was −32.00. The “AAS7 Percent change … (SD)” value [13] was −67.10 (66.88) % and the “AAS7 Percent change … Median” value [13] was −100.00%.
